Results from patent US9216999B2, “Substituted pyrrolo[2,3-h][1,6]naphthyridines and compositions thereof as JAK inhibitors” (priority 2011, dated 2015).

Legend:
Type in all cases: biochemical
Details in all cases: ATP 100 μM
JAK2 = JAK2 (Homo sapiens (Human), UniProt O60674); test: Enzyme assay (Assay Example^a 1), JAK2
JAK3 = JAK3 (Homo sapiens (Human), UniProt P52333); test: Enzyme assay (Assay Example^a 1), JAK3
Tyk2 = Tyk2 (Homo sapiens (Human), UniProt P29597); test: Enzyme assay (Assay Example^a 1), Tyk2
JAK1 = JAK1 (Homo sapiens (Human), UniProt P23458); test: Enzyme assay (Assay Example^a 1), JAK1

JAK3, sequence (P52333 whole entry): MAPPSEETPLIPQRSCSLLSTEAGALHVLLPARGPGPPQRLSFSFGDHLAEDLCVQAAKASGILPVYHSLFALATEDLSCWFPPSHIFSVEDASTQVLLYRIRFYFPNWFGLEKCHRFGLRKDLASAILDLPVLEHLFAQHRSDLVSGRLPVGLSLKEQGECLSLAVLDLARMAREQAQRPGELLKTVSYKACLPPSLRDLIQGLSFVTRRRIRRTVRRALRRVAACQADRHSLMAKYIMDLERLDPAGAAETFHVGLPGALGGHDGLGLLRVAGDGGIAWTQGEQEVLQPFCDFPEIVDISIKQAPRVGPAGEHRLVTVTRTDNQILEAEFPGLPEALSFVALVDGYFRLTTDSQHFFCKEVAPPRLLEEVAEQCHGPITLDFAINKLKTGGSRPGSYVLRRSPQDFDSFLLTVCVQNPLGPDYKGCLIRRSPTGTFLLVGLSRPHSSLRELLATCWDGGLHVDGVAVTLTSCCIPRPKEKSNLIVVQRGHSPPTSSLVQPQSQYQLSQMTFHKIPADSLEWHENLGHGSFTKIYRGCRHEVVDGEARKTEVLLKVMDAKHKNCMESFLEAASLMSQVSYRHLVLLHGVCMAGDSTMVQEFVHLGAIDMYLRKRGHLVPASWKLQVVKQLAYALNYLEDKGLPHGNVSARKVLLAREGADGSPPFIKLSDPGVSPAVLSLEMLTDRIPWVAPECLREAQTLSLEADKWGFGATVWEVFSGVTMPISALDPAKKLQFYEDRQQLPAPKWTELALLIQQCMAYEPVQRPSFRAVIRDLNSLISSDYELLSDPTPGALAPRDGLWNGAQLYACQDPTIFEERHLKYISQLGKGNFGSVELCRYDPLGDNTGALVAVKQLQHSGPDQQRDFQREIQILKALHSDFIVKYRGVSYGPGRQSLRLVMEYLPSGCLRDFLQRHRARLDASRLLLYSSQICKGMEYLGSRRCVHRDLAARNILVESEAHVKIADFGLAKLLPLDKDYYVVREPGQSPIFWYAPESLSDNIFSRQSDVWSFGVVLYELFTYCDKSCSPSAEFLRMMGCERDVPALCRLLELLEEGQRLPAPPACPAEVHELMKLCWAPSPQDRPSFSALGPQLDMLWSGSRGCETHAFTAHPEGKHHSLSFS
Tyk2, sequence (P29597 whole entry): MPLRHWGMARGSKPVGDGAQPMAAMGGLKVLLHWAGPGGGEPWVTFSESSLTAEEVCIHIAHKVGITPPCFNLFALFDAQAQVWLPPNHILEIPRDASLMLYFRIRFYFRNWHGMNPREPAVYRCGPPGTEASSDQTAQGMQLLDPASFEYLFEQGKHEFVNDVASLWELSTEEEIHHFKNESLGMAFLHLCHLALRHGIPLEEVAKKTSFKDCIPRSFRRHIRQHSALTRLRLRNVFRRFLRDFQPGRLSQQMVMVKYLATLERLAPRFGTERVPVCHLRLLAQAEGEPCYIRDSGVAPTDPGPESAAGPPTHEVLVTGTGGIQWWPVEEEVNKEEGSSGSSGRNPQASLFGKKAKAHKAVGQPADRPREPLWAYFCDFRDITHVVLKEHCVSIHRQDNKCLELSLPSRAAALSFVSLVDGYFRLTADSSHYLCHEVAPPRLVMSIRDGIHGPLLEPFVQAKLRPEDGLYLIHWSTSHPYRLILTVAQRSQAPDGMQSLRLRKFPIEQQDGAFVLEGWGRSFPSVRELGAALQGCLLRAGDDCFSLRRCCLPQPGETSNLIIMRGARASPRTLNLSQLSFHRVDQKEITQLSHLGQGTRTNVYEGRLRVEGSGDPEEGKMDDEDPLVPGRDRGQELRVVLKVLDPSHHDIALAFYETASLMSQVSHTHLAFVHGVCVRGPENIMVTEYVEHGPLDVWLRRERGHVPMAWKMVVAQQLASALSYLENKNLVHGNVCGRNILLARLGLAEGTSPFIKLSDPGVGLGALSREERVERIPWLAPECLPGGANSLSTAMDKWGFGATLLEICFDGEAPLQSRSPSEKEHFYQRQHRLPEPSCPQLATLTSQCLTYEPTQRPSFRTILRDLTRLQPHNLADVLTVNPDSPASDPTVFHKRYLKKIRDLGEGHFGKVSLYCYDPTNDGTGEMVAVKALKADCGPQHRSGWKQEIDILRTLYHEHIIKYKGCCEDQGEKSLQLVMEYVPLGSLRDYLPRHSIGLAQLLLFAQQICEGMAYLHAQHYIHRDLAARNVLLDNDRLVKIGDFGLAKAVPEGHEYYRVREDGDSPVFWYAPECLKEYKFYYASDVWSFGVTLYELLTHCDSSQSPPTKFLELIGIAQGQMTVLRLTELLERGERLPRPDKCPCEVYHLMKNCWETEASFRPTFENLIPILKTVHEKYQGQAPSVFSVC

IC50 (JAK2; Table^a 154) [µM]	IC50 (JAK3; Table^a 154) [µM]	IC50 (Tyk2; Table^a 154) [µM]	IC50 (JAK1; Table^a 154) [µM]	SMILES	IC50 (JAK2) [µM]	IC50 (JAK3) [µM]	IC50 (Tyk2) [µM]	IC50 (JAK1) [µM]
–	–	–	–	c1cc2c(ncn3nnc([C@H]4CC[C@H](CNC56CC(C5)C6)CC4)c23)[nH]1 [compound 316, N-{[trans-4-(7H-pyrrolo[3,2-e][1,2,3]triazolo[1,5-c]pyrimidin-1-yl)cyclohexyl]methyl}bicyclo[1.1.1]pentan-1-amine]	0.099	> 1	0.59	0.013
–	–	–	–	OCCNC[C@H]1CC[C@H](c2nnn3cnc4[nH]ccc4c23)CC1 [compound 272, 2-({[trans-4-(7H-pyrrolo[3,2-e][1,2,3]triazolo[1,5-c]pyrimidin-1-yl)cyclohexyl]methyl}amino)ethanol]	0.053	0.43	0.094	0.0035
–	–	–	–	C#CCNC[C@H]1CC[C@H](c2nnn3cnc4[nH]ccc4c23)CC1 [compound 333, N-{[trans-4-(7H-pyrrolo[3,2-e][1,2,3]triazolo[1,5-c]pyrimidin-1-yl)cyclohexyl]methyl}prop-2-yn-1-amine]	0.044	> 1	0.27	0.0085
–	–	–	–	c1cc2c(ncn3nnc([C@H]4CC[C@H](CN5CCCC5)CC4)c23)[nH]1 [compound 287, 1-[trans-4-(pyrrolidin-1-ylmethyl)cyclohexyl]-7H-pyrrolo[3,2-e][1,2,3]triazolo[1,5-c]pyrimidine]	0.077	> 1	0.33	0.0065
–	–	–	–	N#CCCN1CCN(C[C@H]2CC[C@H](c3nnn4cnc5[nH]ccc5c34)CC2)CC1 [compound 314, 3-(4-{[trans-4-(7H-pyrrolo[3,2-e][1,2,3]triazolo[1,5-c]pyrimidin-1-yl)cyclohexyl]methyl}piperazin-1-yl)propanenitrile]	0.19	> 1	0.75	0.008
–	–	–	–	FC(F)(F)CN(CC1CC1)C[C@H]1CC[C@H](c2nnn3cnc4[nH]ccc4c23)CC1 [compound 415, N-{[trans-4-(7H-pyrrolo[3,2-e][1,2,3]triazolo[1,5-c]pyrimidin-1-yl)cyclohexyl]methyl}-N-(cyclopropylmethyl)-2,2,2-trifluoroethanamine]	0.095	> 1	> 1	0.03
–	–	–	–	O=C(CNC[C@H]1CC[C@H](c2nnn3cnc4[nH]ccc4c23)CC1)NCC(F)(F)F [compound 341, 2-({[trans-4-(7H-pyrrolo[3,2-e][1,2,3]triazolo[1,5-c]pyrimidin-1-yl)cyclohexyl]methyl}amino)-N-(2,2,2-trifluoroethyl)acetamide]	0.059	0.31	0.32	0.01
0.024	0.17	0.053	0.0026	Clc1ccc(CCNC[C@H]2CC[C@H](c3nnn4cnc5[nH]ccc5c34)CC2)cc1 [compound 178, N-{[trans-4-(7H-pyrrolo[3,2-e][1,2,3]triazolo[1,5-c]pyrimidin-1-yl)cyclohexyl]methyl}-2-(4-chlorophenyl)ethanamine]	–	–	–	–
–	–	–	–	N#Cc1cc(CN2CCC(c3nnn4cnc5[nH]ccc5c34)CC2)ccc1C(F)(F)F [compound 243, 5-{[4-(7H-pyrrolo[3,2-e][1,2,3]triazolo[1,5-c]pyrimidin-1-yl)piperidin-1-yl]methyl}-2-(trifluoromethyl)benzonitrile]	0.29	> 1	> 1	0.044
–	–	–	–	CC(C)(C)OC(=O)N1CCC(CNC[C@H]2CC[C@H](c3nnn4cnc5[nH]ccc5c34)CC2)CC1 [compound 335, tert-butyl 4-[({[trans-4-(7H-pyrrolo[3,2-e][1,2,3]triazolo[1,5-c]pyrimidin-1-yl)cyclohexyl]methyl}amino)methyl]piperidine-1-carboxylate]	0.29	> 1	0.71	0.029
0.055	0.8	0.041	0.0061	Cc1cnc(CNC[C@H]2CC[C@H](c3nnn4cnc5[nH]ccc5c34)CC2)cn1 [compound 183, 1-[trans-4-(7H-pyrrolo[3,2-e][1,2,3]triazolo[1,5-c]pyrimidin-1-yl)cyclohexyl]-N-[(5-methylpyrazin-2-yl)methyl]methanamine]	–	–	–	–
–	–	–	–	O=C1CN(C[C@H]2CC[C@H](c3nnn4cnc5[nH]ccc5c34)CC2)CCN1 [compound 260, 4-{[trans-4-(7H-pyrrolo[3,2-e][1,2,3]triazolo[1,5-c]pyrimidin-1-yl)cyclohexyl]methyl}piperazin-2-one]	0.048	> 1	0.97	0.024
–	–	–	–	O=S(=O)(C[C@H]1CC[C@H](c2nnn3cnc4[nH]ccc4c23)CC1)C1CC1 [compound 366, 1-{trans-4-[(cyclopropylsulfonyl)methyl]cyclohexyl}-7H-pyrrolo[3,2-e][1,2,3]triazolo[1,5-c]pyrimidine]	0.028	0.28	0.26	0.011
–	–	–	–	N#CCN(CC1CC1)C[C@H]1CC[C@H](c2nnn3cnc4[nH]ccc4c23)CC1 [compound 414, 2-({[trans-4-(7H-pyrrolo[3,2-e][1,2,3]triazolo[1,5-c]pyrimidin-1-yl)cyclohexyl]methyl}(cyclopropylmethyl)amino)acetonitrile]	0.13	> 1	0.11	0.0095
–	–	–	–	O=S(=O)(C[C@H]1CC[C@H](c2nnn3cnc4[nH]ccc4c23)CC1)NCC(F)(F)F [compound 420, 1-[trans-4-(7H-pyrrolo[3,2-e][1,2,3]triazolo[1,5-c]pyrimidin-1-yl)cyclohexyl]-N-(2,2,2-trifluoroethyl)methanesulfonamide]	0.015	0.41	0.3	0.0057
–	–	–	–	N#CC1(c2ccccc2)CCN(C[C@H]2CC[C@H](c3nnn4cnc5[nH]ccc5c34)CC2)CC1 [compound 310, 1-{[trans-4-(7H-pyrrolo[3,2-e][1,2,3]triazolo[1,5-c]pyrimidin-1-yl)cyclohexyl]methyl}-4-phenylpiperidine-4-carbonitrile]	0.38	> 1	> 1	0.071
–	–	–	–	N#CCOc1ccc(CN2CCC(c3nnn4cnc5[nH]ccc5c34)CC2)cc1 [compound 213, 2-(4-{[4-(7H-pyrrolo[3,2-e][1,2,3]triazolo[1,5-c]pyrimidin-1-yl)piperidin-1-yl]methyl}phenoxy)acetonitrile]	0.19	> 1	> 1	0.024
0.031	0.2	0.0028	0.0029	Clc1ccc(CNC[C@H]2CC[C@H](c3nnn4cnc5[nH]ccc5c34)CC2)cc1 [compound 177, 1-[trans-4-(7H-pyrrolo[3,2-e][1,2,3]triazolo[1,5-c]pyrimidin-1-yl)cyclohexyl]-N-(4-chlorobenzyl)methanamine]	–	–	–	–
–	–	–	–	CN(C)S(=O)(=O)C[C@H]1CC[C@H](c2nnn3cnc4[nH]ccc4c23)CC1 [compound 418, 1-[trans-4-(7H-pyrrolo[3,2-e][1,2,3]triazolo[1,5-c]pyrimidin-1-yl)cyclohexyl]-N,N-dimethylmethanesulfonamide]	0.0084	0.33	0.17	0.0043
–	–	–	–	O=C(O)C1CN(C[C@H]2CC[C@H](c3nnn4cnc5[nH]ccc5c34)CC2)C1 [compound 278, 1-{[trans-4-(7H-pyrrolo[3,2-e][1,2,3]triazolo[1,5-c]pyrimidin-1-yl)cyclohexyl]methyl}azetidine-3-carboxylic acid]	0.034	0.45	0.4	0.0043
–	–	–	–	O=C(N[C@@H]1CCN(C[C@H]2CC[C@H](c3nnn4cnc5[nH]ccc5c34)CC2)C1)C(F)(F)F [compound 320, N-((R)-1-{[trans-4-(7H-pyrrolo[3,2-e][1,2,3]triazolo[1,5-c]pyrimidin-1-yl)cyclohexyl]methyl}pyrrolidin-3-yl)-2,2,2-trifluoroacetamide]	0.057	> 1	0.86	0.0076
–	–	–	–	Clc1ccc(C2(NC[C@H]3CC[C@H](c4nnn5cnc6[nH]ccc6c45)CC3)COC2)cc1 [compound 308, N-{[trans-4-(7H-pyrrolo[3,2-e][1,2,3]triazolo[1,5-c]pyrimidin-1-yl)cyclohexyl]methyl}-3-(4-chlorophenyl)oxetan-3-amine]	0.012	0.24	0.79	0.0024
–	–	–	–	N#CCc1ccc(NC[C@H]2CC[C@H](c3nnn4cnc5[nH]ccc5c34)CC2)cc1 [compound 264, 2-[4-({[trans-4-(7H-pyrrolo[3,2-e][1,2,3]triazolo[1,5-c]pyrimidin-1-yl)cyclohexyl]methyl}amino)phenyl]acetonitrile]	0.032	> 1	> 1	0.011
–	–	–	–	CCOC(=O)CC1CCC(c2nnn3cnc4[nH]ccc4c23)CC1 (stereo not drawn) [compound 438, Ethyl 2-[4-(7H-pyrrolo[3,2-e][1,2,3]triazolo[1,5-c]pyrimidin-1-yl)cyclohexyl]acetate]	0.044	0.34	0.58	0.017
0.03	0.23	0.29	0.0058	Fc1ccc(CN2CCC(c3nnn4cnc5[nH]ccc5c34)CC2)c(F)c1 [compound 164, 1-[1-(2,4-difluorobenzyl)piperidin-4-yl]-7H-pyrrolo[3,2-e][1,2,3]triazolo[1,5-c]pyrimidine]	–	–	–	–

SMILES	IC50 (JAK2; Table^a 154) [µM]	IC50 (JAK3; Table^a 154) [µM]	IC50 (Tyk2; Table^a 154) [µM]	IC50 (JAK1; Table^a 154) [µM]	IC50 (JAK2) [µM]	IC50 (JAK3) [µM]	IC50 (Tyk2) [µM]	IC50 (JAK1) [µM]
Fc1ccc(CN2CCC(c3nnn4cnc5[nH]ccc5c34)CC2)nc1 [compound 162, 1-{1-[(5-fluoropyridin-2-yl)methyl]piperidin-4-yl}-7H-pyrrolo[3,2-e][1,2,3]triazolo[1,5-c]pyrimidine]	0.2	0.68	> 1	0.032	–	–	–	–
CN(C[C@H]1CC[C@H](c2nnn3cnc4[nH]ccc4c23)CC1)c1ccc(C#N)cc1 [compound 108]	0.024	0.58	0.58	0.0039	–	–	–	–
